Patent EP0528997B1, “DISULFIDE DERIVATIVES OF MERCAPTOACYLAMINO ACIDS” (SCHERING CORPORATION, priority 1990, dated 1991)

Assays:
[1] = system: DOCA salt hypertension in the rat; assay: DOCA salt hypertension model (antihypertensive effect); type: in vivo, Sprague Dawley rats; conditions: drop in blood pressure
[2] = system: spontaneously hypertensive rats (SHR); assay: ANF potentiation procedure (antihypertensive effect in combination with ANF); type: in vivo; conditions: drop in blood pressure; 30 mg/kg sc
Description: The antihypertensive effect of mercaptoacylamino acid disulfide derivatives in combination with ANF can be determined according to the following procedures:
Male spontaneously hypertensive rats (SHR), 16-18 weeks old, 270-350 g, are anesthetized with ether and the abdominal aorta is cannulated through the tail artery. The animals are then placed into restrainers to recover from anesthesia (in less than 10 min.) and remain inside throughout the experiments. Through a pressure transducer (Gould P23 series) analog blood pressure signals are registered on a Beckman 612 recorder. A Buxco digital computer is used to obtain mean arterial pressures. Patency of the arterial cannula is maintained with a continuous infusion of 5% dextrose at 0.2 ml/hr. Animals are allowed a 90-min equilibration period. The animals first undergo a challenge with an ANF such as atriopeptin II (AP II) or AP28 30 »g/kg iv and at the end of 60 min. are treated with drug vehicle or a mercapto-acylamino acid subcutaneously. A second ANF challenge is administered 15 min. later and blood pressure is monitored for the next 90 min.

Row | Structure (SMILES) | DOCA Salt ΔBP (mmHg) ([1]; 1 mg/kg po) | DOCA Salt ΔBP (mmHg) ([1]; 10 mg/kg po) | ANF Potentiation ΔBP (mmHg) [2] | DOCA Salt ΔBP (mmHg) ([1]; 3 mg/kg po) | DOCA Salt ΔBP (mmHg) ([1]; 0.1 mg/kg po)
1 | CSCC[C@H](NC(=O)[C@@H](CSSC[C@@H](Cc1ccccc1C)C(=O)N[C@@H](CCSC)C(=O)O)Cc1ccccc1C)C(=O)O [Example 2, 1,1'-[DITHIOBIS-[2(S)-(2-METHYLBENZYL)-1-OXO-3,1-PROPANEDIYL]]BIS-(S)-METHIONINE] | 41 mmHg | 57 mmHg | 27 mmHg | – | –
2 | CCOC(=O)[C@H](CCSC)NC(=O)[C@@H](CSSC[C@@H](Cc1ccccc1C)C(=O)N[C@@H](CCSC)C(=O)OCC)Cc1ccccc1C [Example 1, 1,1'-[DITHIOBIS-[2(S)-(2-METHYLBENZYL)-1-OXO-3,1-PROPANEDIYL]]BIS-(S)-METHIONINE DIETHYL ESTER] | – | – | 0 mmHg | 15 mmHg | –
3 | CCOC(=O)[C@@H](O)CNC(=O)[C@@H](CSSC[C@@H](Cc1ccccc1C)C(=O)NC[C@H](O)C(=O)OCC)Cc1ccccc1C [Example 3, 1,1'-[DITHIOBIS-[2(S)-(2-METHYLBENZYL)-1-OXO-3,1-PROPANEDIYL]]BIS-(S)-ISOSERINE DIETHYL ESTER] | 30 mmHg | 44 mmHg | 29 mmHg | – | 31 mmHg
4 | Cc1ccccc1C[C@H](CSSC[C@@H](Cc1ccccc1C)C(=O)NC[C@H](O)C(=O)O)C(=O)NC[C@H](O)C(=O)O [Example 4, 1,1'-[DITHIOBIS-[2(S)-(2-METHYLBENZYL)-1-OXO-3,1-PROPANEDIYL]]BIS-(S)-ISOSERINE] | 21 mmHg | 31 mmHg | 24 mmHg | – | 0 mmHg
